Tests used:
IL-2 = IL-2 production amount in cultured spleen cells (ELISA); type: in vivo, Balb/c based male mice; conditions: single agents 100 mg/kg, mixture sample 50 and 100 mg/kg, orally for 14 days
Procedure: (§1) Balb/c based male mice (8 weeks old) were divided into a vehicle control group, a group in which 5-aminolevulinic acid (hereinafter, referred as ‘ALA’, 100 mg/kg) was orally administered for 14 days (2 weeks), a group in which Lactobacillus reuteri ELF (hereinafter, referred to as ‘LAB’, 100 mg/kg) was orally administered for 14 days (2 weeks), a group in which a mixture sample (50 mg/kg) of Lactobacillus reuteri ELF and 5-aminolevulinic acid (hereinafter, referred to as ‘ALA+LAB’) was orally administered for 14 days (2 weeks), and a group in which the mixture sample (100 mg/kg) of Lactobacillus reuteri ELF and 5-aminolevulinic acid was orally administered for 14 days (2 weeks).
(§2) After 2 weeks of administration, the spleen was harvested from the mice, and spleen cells were isolated with a 100 mesh filter. Before one day of measurement, anti-CD3 mAb (1 μg/ml) was coated on a 96-well plate and kept overnight in a refrigerator at 4° C., and the 96-well plate was washed with D-PBS two times. […] Levels of IFN-γ, IL-2, IL-4, and IL-10 in the culture supernatant were measured by enzyme-linked immuno-sorbent assay (ELISA). […] Thereafter, absorbance was measured at 450 nm in an ELISA reader.

NKG2D = assay: Flow cytometry, frequency of NKG2D, bioactive marker of NK cells; type: in vivo, Balb/c based male mice; conditions: 100 mg/kg orally for 14 days
[1] = system: nitrogen oxide (NO) in macrophage; assay: Nitrogen oxide (NO) formation in macrophage; type: in vivo, Balb/c based mice; conditions: 100 mg/kg orally for 14 days; peritoneal macrophages cultured 72 hours
Procedure: Balb/c based mice were divided into a vehicle control group, a group in which 5-aminolevulinic acid (100 mg/kg) was orally administered for 14 days (2 weeks), a group in which Lactobacillus reuteri ELF (100 mg/kg) was orally administered for 14 days (2 weeks), a group in which a mixture sample (50 mg/kg) of Lactobacillus reuteri ELF and 5-aminolevulinic acid was orally administered for 14 days (2 weeks), and a group in which the mixture sample (100 mg/kg) of Lactobacillus reuteri ELF and 5-aminolevulinic acid was orally administered for 14 days (2 weeks). Three days before termination of administration, after 1.5 ml of 10% proteose peptone (Difco) aqueous solution was administered into the abdominal cavity of the mice, the mice were sacrificed, and the abdomen was disinfected with alcohol. The skin of the abdomen was cut using scissors, and the peritoneum was exposed. Then, 4.5 ml of cooled Hanks' balanced salt solution (HBSS) was injected into the abdominal cavity using a syringe and abdominal massage was performed thereon for 30 seconds, followed by recovering a peritoneal washing fluid using a syringe. […] In addition, after 200 μl of […] reagent II in which 0.06 g of N-1-naphthylene amidehydrochloride was dissolved in 50 ml of distilled water was rapidly added thereto, and stirred, absorbance was measured at 540 nm.

IL-4 = IL-4 production amount in cultured spleen cells (ELISA); type: in vivo, Balb/c based male mice; conditions: single agents 100 mg/kg, mixture sample 50 and 100 mg/kg, orally for 14 days
Procedure: as §1, §2

activated Th lymphocytes = assay: Flow cytometry of activated Th lymphocytes in PBMC; type: in vivo, Balb/c based male mice; conditions: 100 mg/kg orally for 14 days
Procedure: as §1
(§3) After 2 weeks of administration, in order to obtain PBMC in the mice, the blood was extracted using a syringe (3 ml) treated with heparin by a cardiac puncture method. The extracted blood was mixed and treated with 10 ml of ACK solution (a solution obtained by mixing 8.3 g of NH4Cl and 1 g of KHCO3 with demineralized water to which 0.1 Mm EDTA was added) prepared in advance at room temperature for 5 minutes, thereby removing red blood cells. […] Thereafter, the resultants were washed with PBS three times or more, and frequencies (%) of activated CD4^+ CD25^+, CD44^+ CD69^+, CD49b^+ NK1.1^+, and CD25^+ CTLA-4^+ cells were analyzed using a cell quest program of flow cytometry.

[2] = system: peritoneal cell population; assay: Proliferation of peritoneal cell population (number of lymphocytes); type: in vivo, Balb/c based mice; conditions: abdominal cavity, orally for 14 days
Procedure: Balb/c based mice were divided into a vehicle control group, a group in which 5-aminolevulinic acid (100 mg/kg) was orally administered for 14 days (2 weeks), a group in which Lactobacillus reuteri ELF (100 mg/kg) was orally administered for 14 days (2 weeks), a group in which a mixture sample (50 mg/kg) of Lactobacillus reuteri ELF and 5-aminolevulinic acid was orally administered for 14 days (2 weeks), and a group in which the mixture sample (100 mg/kg) of Lactobacillus reuteri ELF and 5-aminolevulinic acid was orally administered for 14 days (2 weeks). Two days before termination of administration, 0.5 ml of 2% normal saline suspension of starch was injected into the abdominal cavity of the mice to thereby be immunized. The mice were sacrificed, and the abdomen was disinfected with alcohol. […] After recovered cells were cooled, washed with the same HBSS solution two times, the number of peritoneal cells existing therein was directly measured using a hemocytometer under a microscope. […] Thereafter, the resultants were washed with PBS three times or more, and frequencies (%) of activated CD11b^+ CD14^+, CD3^+ CD4^+, and CD3^+ CD8^+ cells were analyzed using the Cell Quest program of a flow cytometry, and a total cell count was applied thereto, thereby calculating the absolute number of peritoneal cell population.

CD4^+ CD25^+ cells = assay: Flow cytometry, frequency of CD4^+ CD25^+ cells; type: in vivo, Balb/c based male mice; conditions: 100 mg/kg orally for 14 days
Procedure: as §1, §3

[3] = system: cytochrome c oxidase (COX); assay: COX activity in liver mitochondria; type: in vivo, Balb/c based mice; conditions: 100 mg/kg orally for 14 days
Procedure: Balb/c based mice were divided into a vehicle control group, a group in which 5-aminolevulinic acid (100 mg/kg) was orally administered for 14 days (2 weeks), a group in which Lactobacillus reuteri ELF (100 mg/kg) was orally administered for 14 days (2 weeks), and a group in which the mixture sample (100 mg/kg) of Lactobacillus reuteri ELF and 5-aminolevulinic acid was orally administered for 14 days (2 weeks). In order to measure cytochrome c oxidase (COX) activity in the liver mitochondria of the mouse after administration, proteins were extracted from the liver cells of the mouse and measured using a COX activity assay kit (TA100, Toyo B Net).

Gr-1/CD11b cells = assay: Flow cytometry, frequency of Gr-1/CD11b cells; type: in vivo, Balb/c based male mice; conditions: 100 mg/kg orally for 14 days
IFN-γ = IFN-γ production amount in cultured spleen cells (ELISA); type: in vivo, Balb/c based male mice; conditions: single agents 100 mg/kg, mixture sample 50 and 100 mg/kg, orally for 14 days
Procedure: as §1, §2

CD3 T cells = assay: Flow cytometry, frequency of CD3 T cells; type: in vivo, Balb/c based male mice; conditions: 100 mg/kg orally for 14 days
[4] = system: IFN-γ, IL-2, IL-4, and IL-10; assay: ELISA absorbance of culture supernatant of spleen cells (cytokine not specified); type: in vivo, Balb/c based male mice; conditions: 100 mg/kg orally for 14 days; spleen cells on anti-CD3 mAb, 48 hours
Procedure: as §1, §2

**Q.** Which results are given for `NCC(=O)CCC(=O)O` [5-aminolevulinic acid]?
**A.** IL-2 production amount as compared to control group (NC) (IL-2): slightly increased; frequency of NKG2D as compared to the control group (NKG2D): significantly increased; nitrogen oxide (NO) production amount as compared to the control group (NC) [1]: statistically significantly increased; IL-4 production amount as compared to control group (NC) (IL-4): slightly increased; frequency of activated Th lymphocytes in PBMC, increase as compared to the negative control group (activated Th lymphocytes): ≥ 46.2%; number of lymphocytes as compared to the control group [2]: increased; frequency of CD4^+ CD25^+ cells as compared to the control group (CD4^+ CD25^+ cells): significantly increased; COX activity in liver mitochondria relative to control group [3]: increased by two times or more; frequency of Gr-1/CD11b cells as compared to the control group (Gr-1/CD11b cells): significantly increased; IFN-γ production amount as compared to control group (NC) (IFN-γ): slightly increased; frequency of CD3 T cells as compared to the control group (CD3 T cells): increased; ELISA absorbance at 450 nm relative to control group (NC) [4]: increased two times or more

Source: patent US10590496B2, “Composition for preventing and treating degenerative brain disease using novel lactic acid bacteria” (WEDEA INC., priority 2016, dated 2020)
